Test results reported in US20250314644A1, “METHODS COMPRISING DETECTION OF ADP-HEPTOSE” (CHILDREN'S HOSPITAL MEDICAL CENTER, priority 2023, published 2025).

Legend:
MDS BM cells = assay: Patient derived xenograft in NSG mice treated with ADP-heptose; format: in vivo, human; conditions: immunocompromised mice, after 28 days
Experimental: NOD.Cg-Prkdc^scidIl2rg^tm1Wj1/SzJ (NSG)^75 were bred and maintained by the CCHMC Comprehensive Mouse Core. For patient derived xenografts, NSG mice (sub-lethally conditioned with 2 Gy of whole-body irradiation) were injected tail vein with healthy CD34+ cells (1×10^6 cells per mouse) and MDS patient cells (5×10^6 cells per mouse) in 200 μl of sterile PBS. Mice were then given sterile water or ADP-heptose (0.5 mg/kg) dissolved in sterile water at the indicated times. Mice were monitored for human engraftment in BM aspirates Briefly, 1×10^6 BM cells from each sample were incubated with huCD45 (Cat no. 555485, BDPharmingen) and huCD33 (Cat no. 555450, BDPharmingen) antibodies diluted 1:100 in a solution of PBS, 0.2% FBS for 30 minutes on ice. Cells were washed once with PBS, resuspended in PBS with 0.2% FBS, and immediately analyzed by flow cytometry.

NF-κB in THP1 cells = assay: NF-κB signaling (immunoblot) and THP1-Blue NF-kB SEAP reporter; format: cell-based, human
Experimental: (§1) Protein concentration was evaluated by bicinchoninic acid (BCA) assay (Pierce, Cat #23225). SDS sample buffer was added to the lysates and the proteins were separated by SDS-polyacrylamide gel electrophoresis, transferred to PVDF or nitrocellulose membranes (BIO-RAD, Cat #1620112), and analyzed by immunoblotting. […] Membranes were visualized using ECL Western Blotting Substrate (Pierce, #32106) or SuperSignal West Femto Substrate (Thermo Scientific, #34096), imaged on a BIO-RAD ChemiDoc Touch Imaging system and analyzed with Image lab software 6.0.1 (Biorad) or Image J (22930834).
THP1-Blue NF-kB SEAP reporter cells (Cat no. thp-nkfb, Invivogen) were grown at 20,000 cells per well (200 μl) in a 96-well plate with the indicated agonists and inhibitors for 24 hours. […] The absorbance was read at 630 nm for a final readout. For analysis, media absorbance was subtracted, experimental values were normalized to vehicle control, and triplicates were averaged.

[1] = tested on: MAPK signaling in Dnmt3a^−/− HSPCs; assay: Immunoblot of MAPK signaling; format: cell-based, mouse
Experimental: (A) ALPK1 and TIFA mRNA expression in Dnmt3a^WT and Dnmt3a^KO HSC from the publicly available dataset GSE98191. (B) Immunoblot analysis of HSPCs from WT, Alpk1^KO, Dnmt3a^KO, and Dnmt3a^KO; Alpk1^KO mice stimulated with indicated concentrations of ADP-heptose for 30 minutes to examine MAPK signaling.
as §1

Nc1ncnc2c1ncn2[C@@H]1O[C@H](COP(=O)(O)OP(=O)(O)O[C@@H]2O[C@H]([C@H](O)CO)[C@@H](O)[C@H](O)[C@@H]2O)[C@@H](O)[C@H]1O [ADP-heptose, ADP-D-glycero-β-D-manno-heptose]
expansion of xenografted MDS BM cells (MDS BM cells): expanded | NF-kB activation (NF-κB in THP1 cells; TIFA-deficient THP1 cells): unable to activate NF-kB | canonical NF-κB signaling and transcriptional activation (NF-κB in THP1 cells; human leukemic cells (THP1)): induce canonical NF-κB signaling and transcriptional activation | MAPK signaling [1]: did not result in MAPK signaling
